≈ marks a conversion by molar mass, not a printed value.
Columns and labels:
[1] = tested on: 60 human cancer cell lines; experiment: cells; type: cell-based
Experimental: (§1) Compounds were tested for in vitro activity (48 h drug exposure) across 60 human cancer cell lines through the National Cancer Institute (NCI) Developmental Therapies Screening Program (Boyd et al., 1995).

colon sub-panel = experiment: cells; type: cell-based; details: Homo sapiens, SW-620, read-out: mean LC50 in colon sub-panel
Experimental: as §1

renal sub-panel = experiment: cells; type: cell-based; details: Homo sapiens, 60 cell, read-out: mean LC50 in renal sub-panel
Experimental: as §1

A549 lung adenocarcinoma = experiment: Growth inhibitory assay (MTT, 72 hr); type: cell-based; details: Homo sapiens, 72 hr exposure
Experimental: (§2) Compounds were prepared as 10 mM top stocks, dissolved in DMSO, and stored at 4° C., protected from light, for a maximum period of 4 weeks. Human derived cell lines (HCT 116, HT29 colon carcinoma; MCF-7 (ER+), MDA 468 (ER−) breast carcinoma; A549 lung adenocarcinoma) were routinely cultivated at 37° C. in an atmosphere of 5% CO2 in RPMI 1640 medium supplemented with 2 mM L-glutamine and 10% fetal calf serum and subcultured twice weekly to maintain continuous logarithmic growth. Cells were seeded into 96-well microtiter plates at a density of 5×10^3 per well and allowed 24 hr to adhere before drugs were introduced (final concentration 0.1 nM–100 μM, n=8). Serial drug dilutions were prepared in medium immediately prior to each assay. At the time of drug addition and following 72 hr exposure, MTT was added to each well (final concentration 400 µg/mL). Incubation at 37° C. for 4 hr allowed reduction of MTT by mitochondrial dehydrogenase to an insoluble formazan product. Well contents were aspirated and formazan solubilized by addition of DMSO:glycine buffer (pH 10.5) (4:1). Absorbance was measured using an Anthos Labtec systems plate reader at 550 nm, and used as a measure of cell viability; thus cell growth or drug toxicity was determined.

HCT 116 colon carcinoma = experiment: Growth inhibitory assay (MTT, 72 hr); type: cell-based; details: Homo sapiens, 72 hr exposure
Experimental: as §2

HT29 colon carcinoma = experiment: Growth inhibitory assay (MTT, 72 hr); type: cell-based; details: Homo sapiens, HT-29, 72 hr exposure
Experimental: as §2

[2] = tested on: MCF-7 (ER+) breast carcinoma; experiment: Growth inhibitory assay (MTT, 72 hr); type: cell-based; details: Homo sapiens, MCF7, 72 hr exposure
Experimental: as §2

[3] = tested on: MDA 468 (ER−) breast carcinoma; experiment: Growth inhibitory assay (MTT, 72 hr); type: cell-based; details: Homo sapiens, 72 hr exposure
Experimental: as §2

[4] = tested on: human renal tumor xenograft RXF 944LX; experiment: In vivo antitumor activity, renal tumor xenograft; details: for DT (tumor doubling time) / T/C (optimal test/control) / GD (growth delay): 15 mg/kg i.p.
Experimental: Animals. Six to eight weeks old outbred nude mice of NMRI genetic background were used for all experiments. The animals were bred and raised in animal facilities in Freiburg, Germany and housed in Macrolon™ cages. The mice were kept under laminar air flow on natural day light cycles. Diet (Altromin, Lage, Germany) and water were provided ad libitum and room temperature (25+/−2° C.) as well as humidity (60+/−10%) were maintained. The experiments were conducted essentially according to the UKCCCR guidelines under a project license approved by the German Federal Government (Regierungspräsidium Freiburg). The gender of the mice was chosen according to the gender of the patients from which the tumors were originally derived.
Tumors and Data Evaluation. For the experiments, three subcutaneously (s.c.) growing renal human tumor xenograft models from the Freiburg tumor panel were selected (RXF 944LX, RXF 393, and RXF 1220). All renal cell carcinomas were hypernephromas. For the experiments, the latter were engrafted from tumors in serial passage growing s.c. in nude mice. Fragments of approximately 25 mg were implanted s.c. in both flanks of the animals. When the tumors were clearly palpable and had reached a volume of 100–200 mm^3, animals (6–12 tumors) were randomly allocated into treatment groups. Tumor growth was followed twice weekly by serial caliper measurement. Tumor volumes were calculated using the formula length×width^2/2, where length (a) is the largest dimension and width (b) the smallest dimension perpendicular to the length (a×b^2/2) (see, e.g., Geran et al., 1972).
Data evaluation was performed using software by plotting relative tumor volume against time. Relative tumor volumes were calculated for each single tumor by dividing the tumor volume on day X by the tumor volume on day 0 at the time of randomization. Tumor doubling time of test and control groups was defined as the period required to double the initial tumor volume (200%). Growth curves were analyzed in terms of maximal tumor inhibition (treated/control, T/C, calculated as median tumor weight of treated animals divided by median tumor weight of control animals times 100), growth delay (the difference in days to double the initial tumor volume of the test minus the control groups). Median relative tumor volumes of each treatment group were compared to those of the control group. Human tumors growing s.c. in nude mice were treated intraperitoneally (i.p.) with doses of 15 and 10 mg/kg drug either on days 1 and 2; on days 1 and 5; on days 1 and 8; or on days 1, 5 and 8.
The drug doses and treatment schedules used, were determined as being tolerated in non-tumor bearing nude mice prior to initiation of tumor experiments.

[5] = tested on: Mycobacterium tuberculosis H37Rv (ATCC 27294); experiment: Microplate Alamar Blue Assay (MABA), TAACF primary screening; type: cell-based; details: lowest concentration effecting a reduction in fluorescence of 90% relative to controls
Excerpt: Compounds were submitted to the Tuberculosis Antimicrobial Acquisition and Coordinating Facility (TAACF) for testing as antimycobacterial drugs.
Compounds were subjected to in vitro evaluation for antimycobacterial activity.
See, for example, Collins et al., 1997.

[6] = tested on: ZR^75 clones expressing different levels of epidermal growth factor receptor (EGFR); experiment: Activity against ZR75 clones with different EGFR levels; type: cell-based
apoptotic events = experiment: Induction of apoptotic events; type: cell-based; details: after lag phase (48 h)
cellular glutathione = experiment: Cellular glutathione; type: cell-based
p53 = p53 regulation in cancer cells; type: cell-based; details: MCF-7 (breast cancer) and HCT 116 (colon cancer)
[7] = tested on: human renal tumor xenograft RXF 1220; experiment: In vivo antitumor activity, renal tumor xenograft; details: 15 mg/kg i.p.

**Q.** What does the source list for `O=C1C=CC(O)(c2nc3ccccc3s2)C=C1` [Q05, 4-(Benzothiazol-2-yl)-4-hydroxy-2,5-cyclohexadien-1-one]?
**A.** CC50 ([1]; Homo sapiens, 60 cell, 48 h, read-out: mean LC50): 3390 nM; GI50 ([1]; Homo sapiens, 60 cell, Table 5): 290 nM; GI50 ([1]; Homo sapiens, mean over NCI 60 cell panel, 48 h drug exposure): 230 nM; mean log10GI50 ([1]; NCI analysis): −6.63; log10LC50 ([1]; NCI analysis, certain colon and renal cells lines): < −6.0; LC50 (colon sub-panel): 1760 nM; mean LC50 (renal sub-panel): 1570 nM; IC50 (A549 lung adenocarcinoma): 2350 nM; IC50 (HCT 116 colon carcinoma): 40 nM; IC50 (HT29 colon carcinoma): 380 nM; IC50 [2]: 350 nM; IC50 [3]: 790 nM; DT (tumor doubling time) ([4]; days 1, 2): 4.1; T/C (optimal test/control) ([4]; days 1, 2): 27; GD (growth delay) ([4]; days 1, 2, difference in days to double initial tumor volume): 2.9; DT (tumor doubling time) ([4]; days 1, 8): 4.2; T/C (optimal test/control) ([4]; days 1, 8): 43; GD (growth delay) ([4]; days 1, 8, difference in days to double initial tumor volume): 2.3; toxic death in treatment group ([4]; FIG. 2, six animals per group): 1/6; T/C ([4]; FIG. 2, six animals per group, 11–12 tumors per group): 43%; T/C ([4]; FIG. 3, three animals per group): 27%; MIC [5]: 0.78 µg/mL (≈ 3.21 µM); relative activity against ZR75 clones [6]: equi-active; apoptosis induction (apoptotic events): induces apoptotic events; effect on cellular glutathione (cellular glutathione): depletes cellular glutathione; effect on p53 (p53): up-regulates p53; DT (tumor doubling time) ([7]; days 1, 5, 8): 5.3; T/C (optimal test/control) ([7]; days 1, 5, 8): 66; GD (growth delay) ([7]; days 1, 5, 8, difference in days to double initial tumor volume): 2.2; BWC (maximal body weight change) ([7]; days 1, 5, 8, model induces cachexia): −20

Reference: US7144893B2, “4-aryl quinols and analogs thereof as therapeutic agents” (Cancer Research Technology Limited, priority 2001, dated 2006)
